Measured values reported in patent US11008346B2, “Beta-lactamase inhibitors” (priority 2014, dated 2021).
Read-outs that look alike come from different tables or passages of the source.

Legend:
[1] = target: T1, p99 AmpC β-lactamase (Enterobacter cloacae, UniProt P05364); assay: β-lactamase enzyme inhibition, p99 AmpC; format: biochemical
T1 construct: made in house; host or cells: E. coli BL21(DE3)
Summary of the method: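 Native untagged E. cloacae p99 AmpC was expressed in E. coli BL21(DE3) and purified by cation exchange and gel filtration. Enzyme was preincubated with inhibitor at 37°C for 15 min.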

[2] = target: T2, VIM-2 metallo β-lactamase (Pseudomonas aeruginosa, UniProt Q9K2N0); assay: β-lactamase enzyme inhibition, VIM-2; format: biochemical; details: Nitrocefin 100 μM, 486 nm; 15 min at 37° C. preincubation; read-out: IC50 VIM-2 (Class B)
T2 construct: made in house; host or cells: E. coli BL21(DE3)
Summary of the method: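 VIM-2 purified by Q sepharose anion exchange (50 mM Hepes pH 7.5, 0-600 mM NaCl gradient, two runs, >90% purity). Enzyme preincubated with inhibitor 15 min at 37° C; nitrocefin 100 μM final, absorbance at 486 nm followed 10 min. IC50 from initial hydrolysis rates versus inhibitor-free controls.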

[3] = test system: K. pneumoniae A-1797 expressing KPC-2 and VIM-4; assay: broth microdilution MIC, K. pneumoniae KPC-2 and VIM-4; format: cell-based; details: Fixed Mero (meropenem) 4 μg/mL
Summary of the method: (§1)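 Compounds were titrated in 2-fold steps from 32 to 0.25 μg/mL in cation-adjusted Mueller Hinton broth with a β-lactam held at 4 μg/mL. Plates were inoculated by CLSI broth microdilution with strains pre-grown 3–5 h. After 16–20 h at 37 °C, MIC was read visually.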

[4] = target: T3, OXA-1 β-lactamase (Escherichia coli, UniProt P13661); assay: β-lactamase enzyme inhibition, OXA-1; format: biochemical; details: Nitrocefin 100 μM, 486 nm; 15 min at 37° C. preincubation; read-out: IC50 OXA-1 (Class D)
T3 construct: made in house; host or cells: E. coli BL21(DE3)
T3 sequence (P13661 26-276): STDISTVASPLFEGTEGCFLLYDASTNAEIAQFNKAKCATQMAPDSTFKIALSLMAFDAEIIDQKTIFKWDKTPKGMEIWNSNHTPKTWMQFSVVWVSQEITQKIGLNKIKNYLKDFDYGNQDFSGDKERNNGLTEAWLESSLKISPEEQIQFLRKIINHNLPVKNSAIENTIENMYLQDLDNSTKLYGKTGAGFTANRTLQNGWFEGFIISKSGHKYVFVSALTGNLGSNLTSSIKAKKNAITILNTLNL
Summary of the method: (§2)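 IC50 values reflect inhibitor concentrations halving the initial hydrolysis rate relative to uninhibited wells. Untagged recombinant enzymes were exposed to inhibitor at 37° C for 15 min before substrate addition: 100 μM nitrocefin for OXA-1 and p99 AmpC, imipenem for KPC-2, cefotaxime for SHV-5, each monitored spectrophotometrically for 10 min.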

[5] = target: T4, KPC-2 β-lactamase (Klebsiella pneumoniae, UniProt Q9F663); assay: β-lactamase enzyme inhibition, KPC-2; format: biochemical
T4 construct: made in house; host or cells: E. coli BL21(DE3)
T4 sequence (Q9F663 25-293, looked up): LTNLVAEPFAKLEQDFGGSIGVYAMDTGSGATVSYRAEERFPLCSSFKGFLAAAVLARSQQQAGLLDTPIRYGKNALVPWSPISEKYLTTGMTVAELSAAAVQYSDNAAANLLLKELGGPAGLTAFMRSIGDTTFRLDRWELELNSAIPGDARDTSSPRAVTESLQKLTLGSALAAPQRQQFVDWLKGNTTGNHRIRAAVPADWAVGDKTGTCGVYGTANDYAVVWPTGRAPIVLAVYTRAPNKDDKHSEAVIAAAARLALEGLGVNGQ
Summary of the method: as §2

[6] = test system: S. aureus MSSA-7 producing penicillinase PC-1; assay: broth microdilution MIC, S. aureus PC-1; format: cell-based; details: Fixed Pip (piperacillin) 4 μg/mL
From the text: (§3) To determine the ability of test compounds to potentiate the inhibition of the growth of bacterial strains that produce beta-lactamase enzymes, classic cell based broth microdilution MIC assays were employed. Six bacteria strains producing beta-lactamase enzymes were used: E. coli expressing the Class A Extended Spectrum Beta-Lactamase (ESBL) CTX-M-15, E. cloacae expressing the Class C P99, K. pneumoniae expressing the Class A carbapenemase KPC-3, P. aeruginosa expressing the Class B carbapenemase VIM-2, K pneumoniae expressing the class A carbapenemase KPC-2 and the class B carbapenemase VIM-4, and S. aureus producing the Class A penicillinase PC-1. The assay was conducted in Cation Adjusted Mueller Hinton Broth (CAMHB, BD #212322, BD Diagnostic Systems, Sparks, Md.). Bacteria strains were grown for 3-5 hours in CAMBH broth. Test compounds were added to a microtiter plate in 2-fold serial dilutions in CAMHB in a final concentration range of 32 μg/mL to 0.25 μg/ml. An overlay of CAMHB containing a Beta-lactam was added to the compounds at a final static concentration of 4 μg/ml. […] In addition to the titration of test compounds the MICs of a panel of control beta-lactams is also tested to ensure the strains are behaving consistently from test to test. Once the test compound and antibiotics are added the plates can be inoculated according to CLSI broth microdilution method. After inoculation the plates are incubated for 16-20 hours at 37° C., then the Minimal Inhibitory Concentration (MIC) of the test compound is determined visually.
(§4) Using the methodology described above, examples of the current invention were evaluated for their ability to inhibit the growth of β-lactamase-producing bacteria in the presence of a β-lactam antibiotic.
(§5) Representative results are shown in Table 4 where A represents an MIC of the fixed β-lactam antibiotic in the presence of >32 µg/mL of a β-lactamase inhibitor of exemplary compounds, B represents the MIC in the presence of between 8 and 32 µg/mL of a β-lactamase inhibitor of exemplary compounds, and C represents the MIC in the presence of ≤4 µg/mL of a β-lactamase inhibitor of exemplary compounds. NT=Not Tested.

[7] = test system: K. pneumoniae 156319 expressing KPC-3; assay: broth microdilution MIC, K. pneumoniae KPC-3; format: cell-based; details: Fixed Mero (meropenem) 4 μg/mL
Summary of the method: as §1

[8] = target: T5, SHV-5 β-lactamase (Klebsiella pneumoniae, UniProt P0A3M1); assay: β-lactamase enzyme inhibition, SHV-5; format: biochemical
T5 construct: made in house; host or cells: E. coli BL21(DE3)
T5 sequence (P0A3M1 22-286): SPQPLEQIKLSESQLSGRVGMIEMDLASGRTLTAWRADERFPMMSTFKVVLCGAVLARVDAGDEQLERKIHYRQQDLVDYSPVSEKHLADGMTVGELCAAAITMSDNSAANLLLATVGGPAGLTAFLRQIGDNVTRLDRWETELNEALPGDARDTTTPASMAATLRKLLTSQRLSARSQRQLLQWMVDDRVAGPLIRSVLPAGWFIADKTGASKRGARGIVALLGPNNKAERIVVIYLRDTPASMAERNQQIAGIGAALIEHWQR
Summary of the method: as §2

[9] = test system: E. cloacae 144200 expressing Class C P99 AmpC; assay: broth microdilution MIC, E. cloacae P99; format: cell-based; details: Fixed CAZ (ceftazidime) 4 μg/mL
Summary of the method: as §1

[10] = test system: E. coli ESBL4 expressing CTX-M-15; assay: broth microdilution MIC, E. coli CTX-M-15; format: cell-based; details: Fixed CAZ (ceftazidime) 4 μg/mL
Summary of the method: as §1

[11] = test system: P. aeruginosa Ps296 expressing VIM-2; assay: broth microdilution MIC, P. aeruginosa VIM-2; format: cell-based; details: Fixed Mero (meropenem) 4 μg/mL
From the text: as §3, §4, §5

[12] = imipenem substrate, 300 nm, 15 min at 37° C. preincubation, read-out: IC50 KPC-2 (Class A)

T1 sequence (P05364 21-381): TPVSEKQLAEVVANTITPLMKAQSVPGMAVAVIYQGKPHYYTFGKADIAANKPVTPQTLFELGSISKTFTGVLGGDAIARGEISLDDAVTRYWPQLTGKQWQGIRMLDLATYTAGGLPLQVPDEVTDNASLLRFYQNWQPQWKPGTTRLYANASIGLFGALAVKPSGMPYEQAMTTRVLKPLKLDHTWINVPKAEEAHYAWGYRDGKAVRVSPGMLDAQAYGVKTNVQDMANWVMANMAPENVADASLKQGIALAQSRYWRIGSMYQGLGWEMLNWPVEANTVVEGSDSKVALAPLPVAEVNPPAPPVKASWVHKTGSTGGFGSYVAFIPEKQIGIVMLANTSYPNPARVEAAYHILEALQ

Structure (SMILES)	IC50 [1] [nM]	IC50 [2] [nM]	MIC of exemplary compounds in presence of fixed β-lactams, K.P. A-1797 KPC-2 VIM-4 [3]	IC50 [4] [nM]	IC50 [5, 12] [nM]	MIC of exemplary compounds in presence of fixed β-lactams, S. aureus MSSA-7 PC-1 [6]	MIC of exemplary compounds in presence of fixed β-lactams, K.P. 156319 KPC-3 [7]	IC50 [8] [nM]	MIC of exemplary compounds in presence of fixed β-lactams, E. cl. 144200 p99 AmpC [9]	MIC of exemplary compounds in presence of fixed β-lactams, E. coli ESBL4 CTX-M-15 [10]	MIC of exemplary compounds in presence of fixed β-lactams, P. aerug. Ps296 VIM-2 [11]	IC50 [5] [nM]
CC(Cl)(Cl)C(=O)N[C@H]1Cc2cccc(C(=O)O)c2OB1O [Example 11, (R)-3-(2,2-Dichloro-propionylamino)-2-hydroxy-3,4-dihydro-2H-benzo[e][1,2]oxaborinine-8-carboxylic acid]	< 100	1000 to 10000	A (A represents an MIC of the fixed β-lactam antibiotic in the presence of >32 g/mL of a β-lactamase inhibitor)	< 100	< 100	C (C represents the MIC in the presence of ≤4 g/mL of a β-lactamase inhibitor)	C (C represents the MIC in the presence of ≤4 g/mL of a β-lactamase inhibitor)	< 100	C (C represents the MIC in the presence of ≤4 g/mL of a β-lactamase inhibitor)	C (C represents the MIC in the presence of ≤4 g/mL of a β-lactamase inhibitor)	B (B represents the MIC in the presence of between 8 and 32 g/mL of a β-lactamase inhibitor)	
O=C(/C=C/Cl)N[C@H]1Cc2cccc(C(=O)O)c2OB1O [Example 12, (R)-3-(3-Chloro-acryloylamino)-2-hydroxy-3,4-dihydro-2H-benzo[e][1,2]oxaborinine-8-carboxylic acid]	< 100	100 to 1000	A (A represents an MIC of the fixed β-lactam antibiotic in the presence of >32 g/mL of a β-lactamase inhibitor)	< 100	< 100	C (C represents the MIC in the presence of ≤4 g/mL of a β-lactamase inhibitor)	B (B represents the MIC in the presence of between 8 and 32 g/mL of a β-lactamase inhibitor)	< 100	C (C represents the MIC in the presence of ≤4 g/mL of a β-lactamase inhibitor)	C (C represents the MIC in the presence of ≤4 g/mL of a β-lactamase inhibitor)	B (B represents the MIC in the presence of between 8 and 32 g/mL of a β-lactamase inhibitor)	
CC(=O)CCCC(=O)N[C@H]1Cc2cccc(C(=O)O)c2OB1O [Example 13, (R)-2-Hydroxy-3-(5-oxo-hexanoylamino)-3,4-dihydro-2H-benzo[e][1,2]oxaborinine-8-carboxylic acid]	< 100	100 to 1000	C (C represents the MIC in the presence of ≤4 g/mL of a β-lactamase inhibitor)	< 100	100 to 1000	C (C represents the MIC in the presence of ≤4 g/mL of a β-lactamase inhibitor)	C (C represents the MIC in the presence of ≤4 g/mL of a β-lactamase inhibitor)	< 100	C (C represents the MIC in the presence of ≤4 g/mL of a β-lactamase inhibitor)	C (C represents the MIC in the presence of ≤4 g/mL of a β-lactamase inhibitor)	C (C represents the MIC in the presence of ≤4 g/mL of a β-lactamase inhibitor)	
N#CCCCC(=O)N[C@H]1Cc2cccc(C(=O)O)c2OB1O [Example 14, (R)-3-(4-Cyano-butyrylamino)-2-hydroxy-3,4-dihydro-2H-benzo[e][1,2]oxaborinine-8-carboxylic acid]	< 100	1000 to 10000	B (B represents the MIC in the presence of between 8 and 32 g/mL of a β-lactamase inhibitor)	< 100	< 100	C (C represents the MIC in the presence of ≤4 g/mL of a β-lactamase inhibitor)	C (C represents the MIC in the presence of ≤4 g/mL of a β-lactamase inhibitor)	< 100	C (C represents the MIC in the presence of ≤4 g/mL of a β-lactamase inhibitor)	C (C represents the MIC in the presence of ≤4 g/mL of a β-lactamase inhibitor)	C (C represents the MIC in the presence of ≤4 g/mL of a β-lactamase inhibitor)	
CN(C)C(=O)CCC(=O)N[C@H]1Cc2cccc(C(=O)O)c2OB1O [Example 15, (R)-3-(3-Dimethylcarbamoyl-propionylamino)-2-hydroxy-3,4-dihydro-2H-benzo[e][1,2]oxaborinine-8-carboxylicacid]	< 100	10000 to 100000	A (A represents an MIC of the fixed β-lactam antibiotic in the presence of >32 g/mL of a β-lactamase inhibitor)	< 100	< 100	C (C represents the MIC in the presence of ≤4 g/mL of a β-lactamase inhibitor)	C (C represents the MIC in the presence of ≤4 g/mL of a β-lactamase inhibitor)	< 100	C (C represents the MIC in the presence of ≤4 g/mL of a β-lactamase inhibitor)	C (C represents the MIC in the presence of ≤4 g/mL of a β-lactamase inhibitor)	B (B represents the MIC in the presence of between 8 and 32 g/mL of a β-lactamase inhibitor)	
NC(=O)CCC(=O)N[C@H]1Cc2cccc(C(=O)O)c2OB1O [Example 16, (R)-3-(3-Carbamoyl-propionylamino)-2-hydroxy-3,4-dihydro-2H-benzo[e][1,2]oxaborinine-8-carboxylic acid]	< 100	100 to 1000	B (B represents the MIC in the presence of between 8 and 32 g/mL of a β-lactamase inhibitor)	< 100		C (C represents the MIC in the presence of ≤4 g/mL of a β-lactamase inhibitor)	C (C represents the MIC in the presence of ≤4 g/mL of a β-lactamase inhibitor)	100 to 1000	C (C represents the MIC in the presence of ≤4 g/mL of a β-lactamase inhibitor)	C (C represents the MIC in the presence of ≤4 g/mL of a β-lactamase inhibitor)	C (C represents the MIC in the presence of ≤4 g/mL of a β-lactamase inhibitor)	< 100
